Format in all cases: biochemical
Assay [1] addresses T1, GCK (germinal center kinase, MAP4K2) (Homo sapiens, UniProt Q12851).
T1 construct: Residues 1–473 glutathione-s-transferase (GST) tagged protein
T1 sequence (Q12851 1-473): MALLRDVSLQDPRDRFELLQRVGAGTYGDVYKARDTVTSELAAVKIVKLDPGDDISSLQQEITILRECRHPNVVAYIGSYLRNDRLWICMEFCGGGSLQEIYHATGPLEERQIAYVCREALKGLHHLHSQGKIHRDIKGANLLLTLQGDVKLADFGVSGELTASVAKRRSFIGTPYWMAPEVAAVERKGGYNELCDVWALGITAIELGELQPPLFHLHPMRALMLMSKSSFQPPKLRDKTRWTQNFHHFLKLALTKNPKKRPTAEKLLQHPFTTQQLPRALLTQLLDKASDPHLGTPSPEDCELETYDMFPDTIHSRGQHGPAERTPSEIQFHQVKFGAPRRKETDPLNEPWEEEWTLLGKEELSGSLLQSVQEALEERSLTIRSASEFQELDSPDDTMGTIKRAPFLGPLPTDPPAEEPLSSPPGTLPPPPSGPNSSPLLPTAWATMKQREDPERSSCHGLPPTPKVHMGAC
Nature of the assay: in vitro radiometric kinase assay at […] BAY61-3606 (Fig 3B).

The target in the next assay is T2, SYK (Homo sapiens, UniProt P43405).
T2 construct: Full length His-tagged protein
The description is as above.

In a further assay the target is T3, IKKα (Homo sapiens, UniProt O15111).
T3 construct: gene CHUK; Full length GST-tagged protein
T3 sequence (O15111 1-745): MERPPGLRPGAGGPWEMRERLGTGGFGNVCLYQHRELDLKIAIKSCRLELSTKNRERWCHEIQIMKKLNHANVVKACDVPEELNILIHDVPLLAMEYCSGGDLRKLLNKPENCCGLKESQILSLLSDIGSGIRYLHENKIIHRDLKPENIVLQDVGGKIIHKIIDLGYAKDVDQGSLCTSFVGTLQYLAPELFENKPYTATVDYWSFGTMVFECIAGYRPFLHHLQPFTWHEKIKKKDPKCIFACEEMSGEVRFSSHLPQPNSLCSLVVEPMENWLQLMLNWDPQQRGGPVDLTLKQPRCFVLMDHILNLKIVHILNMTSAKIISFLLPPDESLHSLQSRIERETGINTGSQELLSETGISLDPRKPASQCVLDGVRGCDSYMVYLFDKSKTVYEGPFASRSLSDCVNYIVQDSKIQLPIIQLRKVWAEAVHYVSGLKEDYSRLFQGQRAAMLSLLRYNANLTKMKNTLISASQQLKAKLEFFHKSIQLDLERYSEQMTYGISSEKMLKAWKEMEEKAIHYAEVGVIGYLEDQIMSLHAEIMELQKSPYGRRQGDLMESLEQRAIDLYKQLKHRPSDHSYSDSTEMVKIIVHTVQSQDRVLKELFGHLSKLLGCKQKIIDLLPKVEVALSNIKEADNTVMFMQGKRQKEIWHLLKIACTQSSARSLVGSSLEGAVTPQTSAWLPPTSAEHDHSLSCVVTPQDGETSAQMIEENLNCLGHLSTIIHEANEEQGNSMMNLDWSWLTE
Nature of the assay: in vitro radiometric kinase assay ([γ-33P-ATP], KinaseProfiler), dose response.

The results in this text go back to paper PMC4773098, “Inhibition of IKKα by BAY61-3606 Reveals IKKα-Dependent Histone H3 Phosphorylation in Human Cytomegalovirus Infected Cells” (PLoS ONE, 2016).

The structures appear in SMILES notation. Where a name gives a salt, the structure may show the parent alone.

As usually defined, the IC50 is the concentration that inhibits the measured activity by half. Regarding `COc1ccc(-c2cc3nccn3c(Nc3ncccc3C(N)=O)n2)cc1OC` [BAY61-3606, 2-[7-(3,4-dimethoxyphenyl)-imidazo[1,2-c]pyrimidin-5-ylamino]nicotinamide dihydrochloride], the “in vitro radiometric kinase assay at 10 μM BAY61-3606 (Fig 3B)” value in assay [1] was “We observed that BAY61-3606 is a potent inhibitor of SYK, GCK and IKKα, but not IKKβ or LYN”; at SYK it was “We observed that BAY61-3606 is a potent inhibitor of SYK, GCK and IKKα, but not IKKβ or LYN”. Further, the IC50 on IKKα is 45 nM.
